Read-outs that look alike come from different tables or passages of the source.
Legend:
human topoisomerase II = target: T1, human topoisomerase II (Homo sapiens, UniProt P11388); experiment: Mammalian topoisomerase II inhibition assay (topo II covalently attached to DNA, relative to mAMSA); type: biochemical; details: read-out: topo II inh. EC50
T1 construct: Topo II was purified from late log phase suspension cultures of HeLa WIS; endogenous in cells; host or cells: HeLa WIS
Description: The inhibition of human topoisomerase II (hereafter topo II) was quantitated by a procedure adapted from that described by Trask et al., EMBO J., 3, 671-676 (1984). The assay quantitates the amount of topo II covalently attached to DNA at equilibrium during a topo II reaction. This assay determines the potential of a compound to stabilize this complex, which potential is closely related to the cytotoxicity of the compound.
Topo II was purified from late log phase suspension cultures of HeLa WIS by an adaptation of the method described by Per et al., Mol. Pharmacol., 32, 17-25 (1987).
Assays (in duplicate) were assembled at 4° C. Assay mix (25 μl) was distributed in Beckman (No. 265270) 1.5 mL microtiter tubes followed by the addition of 5 μl test compound to yield the final concentrations of assay components:
The assay mix including the test compound was incubated for 20 minutes at 37° C. The reaction was terminated at 37° C. by the addition of 3 μl 10% SDS followed by the addition of 266 μl 10 mM Tris-Cl pH 7.5, 20 μg/ml BSA, 20 μg/ml calf thymus DNA, 1% SDS.
A SDS/protein precipitate was formed by the addition of 28 μl 2.5M KCl followed by chilling on ice for a minimum of 10 minutes. The precipitate was collected and washed with a Brandell cell harvester on a GFB glass fiber filter membrane as follows. The contents of the assay tube were drawn up into the harvester. The tube was then rinsed 7× with 10 mM Tris-Cl pH 7.5, 1 mM EDTA and 100 mM KCl. The precipitate was washed with 1 L of a solution of 10 mM Tris-Cl pH 7.5, 1 mMEDTA, 100 mM KCl followed by 1 L of 95% ethyl alcohol and finally 0.5 L 70% of ethyl alcohol (per 48 samples in each case). After drying, CPM was determined by liquid scintillation counting with 5 ml Biofluor (NEN Research Products) or Readisafe (Beckman Instruments Inc.) cocktail.
Preparation of test compound--A stock solution (6 mg/ml) of test compound was prepared either in 0.1N sodium hydroxide or 0.2N hydrogen chloride. This solution then was diluted 1/5 into water and serially thereafter in either 0.02N sodium hydroxide or 0.04N hydrogen chloride, respectively. The stock solution and serial dilution of the test compound was stored at -20° C. prior to testing.
Screening of test compound--As an initial screen, the test compound was tested at a final concentration of 2, 20 and 200 μg/ml. The compound was then retested at a range of concentrations (usually 2-3×steps) bridging their approximate EC50 's, as estimated by the prescreen.
Controls--A solvent control which indicates the base level of topo II-DNA complex formed in the absence of the test compound was included in each test. A control, in which topo II was omitted, was included for each test compound at the highest drug concentration tested.
Reference Agent--A dose response curve with mAMSA at 0.01, 0.08, 0.16, 0.32, 1.0 and 10 μg/ml was included in each test.
The maximal DNA-topo II complex formed is taken as that equal to that formed at the nearly saturating dose of mAMSA (10 μg/ml).

[1] = system: P388 murine leukemia cells; experiment: In vitro cytotoxicity, one-hour exposure, clonogenic survival of P388 cells; type: cell-based; details: Mus musculus, read-out: in vitro cytotoxicity IC50, 1 hr exp.; P388, 1 hr exposure
Method: (§1) In vitro cytotoxicity was assayed by determining cell survival following exposure of P388 murine leukemia cells to a range of test compound concentrations. Cytotoxicity was quantitated following either a one-hour exposure or continuous exposure of P388 cells to test compound.
(§2) A Manual of Basic Technique. […] Briefly, following drug exposure cells were plated in soft agar and incubated (37°, 5% CO2) for 7-10 days during which time viable cells form visible colonies. Cytotoxicity following continuous exposure of cells to test compound was assayed by quantitating total P388 cells on a Coultier Counter following a 48-hour co-incubation of test compound with cells. P388 cells were maintained in log phase throughout the duration of cytotoxicity assays.
(§3) The percentage of cells surviving relative to an untreated control was graphed as a function of increasing drug concentration.

[2] = system: P388 murine leukemia cells; experiment: In vitro cytotoxicity, continuous (48-hour) exposure of P388 cells; type: cell-based; details: Mus musculus; P388, continuous exposure (48-hour); read-out: in vitro cytotoxicity IC50, cont. exp.
Method: as §1, §2, §3

[3] = conc. achieving 50% of maximal effect of mAMSA, topo II from HeLa cells
[4] = footnote c: bell-shaped dose response curve noted, 50% of maximal effect of mAMSA

T1 sequence (P11388 whole entry): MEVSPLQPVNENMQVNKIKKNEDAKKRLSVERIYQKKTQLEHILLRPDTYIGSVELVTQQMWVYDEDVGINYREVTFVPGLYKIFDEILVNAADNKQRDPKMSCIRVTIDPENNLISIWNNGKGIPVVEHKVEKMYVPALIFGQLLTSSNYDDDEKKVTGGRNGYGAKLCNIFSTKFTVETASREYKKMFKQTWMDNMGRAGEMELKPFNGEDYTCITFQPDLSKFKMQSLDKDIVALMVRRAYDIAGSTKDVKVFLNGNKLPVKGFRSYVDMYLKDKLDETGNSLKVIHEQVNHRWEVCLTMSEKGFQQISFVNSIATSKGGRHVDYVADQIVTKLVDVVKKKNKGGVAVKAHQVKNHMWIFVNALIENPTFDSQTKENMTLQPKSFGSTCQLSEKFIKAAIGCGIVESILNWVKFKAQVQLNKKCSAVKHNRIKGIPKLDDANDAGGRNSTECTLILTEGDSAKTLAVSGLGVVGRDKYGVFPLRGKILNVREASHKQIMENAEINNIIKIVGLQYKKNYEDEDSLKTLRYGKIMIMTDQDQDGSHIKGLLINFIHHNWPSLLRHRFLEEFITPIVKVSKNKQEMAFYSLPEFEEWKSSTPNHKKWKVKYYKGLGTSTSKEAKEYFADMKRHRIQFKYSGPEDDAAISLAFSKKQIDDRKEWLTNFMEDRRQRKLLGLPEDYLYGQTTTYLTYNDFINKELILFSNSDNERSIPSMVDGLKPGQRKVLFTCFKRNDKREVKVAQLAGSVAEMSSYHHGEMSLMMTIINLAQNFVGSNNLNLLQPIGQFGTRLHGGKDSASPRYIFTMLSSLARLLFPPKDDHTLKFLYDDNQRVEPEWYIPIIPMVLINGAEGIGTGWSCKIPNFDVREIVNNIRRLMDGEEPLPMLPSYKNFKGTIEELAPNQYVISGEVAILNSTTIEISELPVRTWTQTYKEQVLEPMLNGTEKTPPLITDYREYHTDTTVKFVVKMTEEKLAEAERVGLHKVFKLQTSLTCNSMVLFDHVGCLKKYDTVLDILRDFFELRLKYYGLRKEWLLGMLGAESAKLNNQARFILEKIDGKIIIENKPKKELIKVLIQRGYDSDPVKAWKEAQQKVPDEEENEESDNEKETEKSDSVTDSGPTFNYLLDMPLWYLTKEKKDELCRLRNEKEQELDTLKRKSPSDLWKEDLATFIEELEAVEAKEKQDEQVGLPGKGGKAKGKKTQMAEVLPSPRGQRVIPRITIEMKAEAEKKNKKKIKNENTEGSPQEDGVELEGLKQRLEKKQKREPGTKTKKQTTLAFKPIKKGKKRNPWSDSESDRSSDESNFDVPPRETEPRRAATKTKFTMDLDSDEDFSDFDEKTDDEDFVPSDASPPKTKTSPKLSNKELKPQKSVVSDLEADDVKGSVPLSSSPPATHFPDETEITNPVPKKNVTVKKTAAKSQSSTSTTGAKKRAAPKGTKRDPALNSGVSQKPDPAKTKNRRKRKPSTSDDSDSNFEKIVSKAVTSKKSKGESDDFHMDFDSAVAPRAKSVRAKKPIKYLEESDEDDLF

Structure (SMILES)	EC50 (human topoisomerase II)	EC50 (human topoisomerase II; [3])	EC50 (human topoisomerase II; [4])	IC50 [1]	IC50 [2]
CCN(CC)CCn1nc2c3cc(F)c(-c4cc(C)nc(C)c4)c(F)c3n(C3CC3)cc-2c1=O [Example 15]	93 µM	–	–	0.45 µM	–
CCCCn1nc2c3cc(F)c(-c4cc(C)nc(C)c4)c(F)c3n(C3CC3)cc-2c1=O [Example 4, 2-(1-Butyl)-5-cyclopropyl-6,8-difluoro-2,5-dihydro-7-(2,6-dimethyl-4-pyridinyl) -3H-pyrazolo[4,3-c]quinolin-3-one]	–	2.9 µM	–	–	1.5 µM
Cc1cc(-c2c(F)cc3c4nn([C@H]5CC[C@@H](NC=O)CC5)c(=O)c-4cn(C4CC4)c3c2F)cc(C)n1 [Example 57, 2-(cis-4-formamidocyclohexyl)-5-cyclopropyl-6,8-difluoro-2,5-dihydro-7-(2,6-dimethyl-4-pyridinyl)-3H-pyrazolo[4,3-c]quinolin-3-one]	–	0.8 µM	–	5.1 µM	–
Cc1cc(-c2c(F)cc3c4nn(CCc5ccccc5O)c(=O)c-4cn(C4CC4)c3c2F)cc(C)n1 [Example 39]	–	–	9.6 µM	–	–
Cc1cc(-c2c(F)cc3c4nn(-c5ccccc5O)c(=O)c-4cn(C4CC4)c3c2F)cc(C)n1 [Example 5, 5-Cyclopropyl-6,8-difluoro-2,5-dihydro-2-(2-hydroxyphenyl)-7-(2,6-dimethyl-4-pyridinyl) -3H-pyrazolo[4,3-c]quinolin-3-one]	–	1.2 µM	–	–	0.15 µM
Cc1cc(-c2c(F)cc3c4nn(-c5ccccn5)c(=O)c-4cn(C4CC4)c3c2F)cc(C)n1 [Example 29]	–	2.8 µM	–	–	0.74 µM
Cc1cc(-c2c(F)cc3c4nn(C(C)(C)C)c(=O)c-4cn(C4CC4)c3c2F)cc(C)n1 [Example 8]	–	6.9 µM	–	–	3.5 µM
Cc1cc(-c2c(F)cc3c4nn(C5CCc6ccccc6C5)c(=O)c-4cn(C4CC4)c3c2F)cc(C)n1 (centres unmarked) [Example 44]	–	3.7 µM	–	–	1.5 µM
Cc1cc(-c2c(F)cc3c4nn(C)c(=O)c-4cn(C4CC4)c3c2F)cc(C)n1 [Example 7]	–	5.9 µM	–	–	0.51 µM
Cc1cc(-c2c(F)cc3c4nn(Cc5ccccc5)c(=O)c-4cn(C4CC4)c3c2F)cc(C)n1 [Example 31]	–	3.7 µM	–	–	0.14 µM
Cc1cc(-c2c(F)cc3c4nn(CCN5CCCCC5)c(=O)c-4cn(C4CC4)c3c2F)cc(C)n1 [Example 19]	210 µM	–	–	0.44 µM	–
Cc1cc(-c2c(F)cc3c4nn(CCC#N)c(=O)c-4cn(C4CC4)c3c2F)cc(C)n1 [Example 13]	–	6.7 µM	–	–	1.4 µM
COc1ccc(Cn2nc3c4cc(F)c(-c5cc(C)nc(C)c5)c(F)c4n(C4CC4)cc-3c2=O)cc1 [Example 34]	–	3.2 µM	–	–	0.44 µM
COc1ccccc1CCn1nc2c3cc(F)c(-c4cc(C)nc(C)c4)c(F)c3n(C3CC3)cc-2c1=O [Example 38]	–	11 µM	–	–	–
Cc1cc(-c2c(F)cc3c4nn(Cc5ccc(O)cc5)c(=O)c-4cn(C4CC4)c3c2F)cc(C)n1 [Example 35]	–	1.5 µM	–	–	0.25 µM
CC(=O)N[C@H]1CC[C@H](n2nc3c4cc(F)c(-c5cc(C)nc(C)c5)c(F)c4n(C4CC4)cc-3c2=O)CC1 [Example 52b]	–	9.8 µM	–	1.2 µM	–
Cc1cc(-c2c(F)cc3c4nn(Cc5ccccc5O)c(=O)c-4cn(C4CC4)c3c2F)cc(C)n1 [Example 33]	–	3.8 µM	–	–	1.4 µM
COc1ccccc1Cn1nc2c3cc(F)c(-c4cc(C)nc(C)c4)c(F)c3n(C3CC3)cc-2c1=O [Example 32]	–	5.1 µM	–	–	1.2 µM
Cc1cc(-c2c(F)cc3c4nn(-c5c(F)c(F)c(F)c(F)c5F)c(=O)c-4cn(C4CC4)c3c2F)cc(C)n1 [Example 25]	–	3.4 µM	–	–	2.2 µM
Cc1cc(-c2c(F)cc3c4nn(CCCCO)c(=O)c-4cn(C4CC4)c3c2F)cc(C)n1 [Example 11]	–	4.2 µM	–	–	0.88 µM
Cc1cc(-c2c(F)cc3c4nn(CC(=O)O)c(=O)c-4cn(C4CC4)c3c2F)cc(C)n1 [Example 53, 2-[5-Cyclopropyl-6,8-difluoro-2,5-dihydro-7-(2,6-dimethyl-4-pyridinyl)-3-oxo-3H-pyrazolo[4,3-c]quinolinyl]acetic acid]	–	10 µM	–	–	18 µM
Cc1cc(-c2c(F)cc3c4nn(-c5ccncc5)c(=O)c-4cn(C4CC4)c3c2F)cc(C)n1 [Example 30]	–	–	8 µM	–	1.2 µM
COc1cc(Cn2nc3c4cc(F)c(-c5cc(C)nc(C)c5)c(F)c4n(C4CC4)cc-3c2=O)cc(OC)c1OC [Example 36]	–	6.4 µM	–	–	1.2 µM
Cc1cc(-c2c(F)cc3c4nn(C5CCC(C)CC5)c(=O)c-4cn(C4CC4)c3c2F)cc(C)n1 (centres unmarked) [Example 47]	–	3.1 µM	–	1.4 µM	–
CCOC(=O)Cn1nc2c3cc(F)c(-c4cc(C)nc(C)c4)c(F)c3n(C3CC3)cc-2c1=O [Example 9]	–	6.1 µM	–	–	0.15 µM
Cc1cc(-c2c(F)cc3c4nn(CCc5ccccc5)c(=O)c-4cn(C4CC4)c3c2F)cc(C)n1 [Example 37]	–	5 µM	–	–	2.2 µM

Further compounds by falling EC50 (human topoisomerase II; [3]), results first:

EC50 (human topoisomerase II)	EC50 (human topoisomerase II; [3])	EC50 (human topoisomerase II; [4])	Structure (SMILES)	IC50 [1]	IC50 [2]
–	23 µM	–	COC(Cn1nc2c3cc(F)c(-c4cc(C)nc(C)c4)c(F)c3n(C3CC3)cc-2c1=O)OC [Example 12]	–	–
–	8.9 µM	–	Cc1ccc(-n2nc3c4cc(F)c(-c5cc(C)nc(C)c5)c(F)c4n(C4CC4)cc-3c2=O)cc1 [Example 24]	–	4.9 µM
–	7.4 µM	–	CC(=O)N[C@H]1CC[C@@H](n2nc3c4cc(F)c(-c5cc(C)nc(C)c5)c(F)c4n(C4CC4)cc-3c2=O)CC1 [Example 52a]	1.3 µM	–
–	6.8 µM	–	Cc1cc(-c2c(F)cc3c4nn(CC(F)(F)F)c(=O)c-4cn(C4CC4)c3c2F)cc(C)n1 [Example 2]	–	1.4 µM
–	6.4 µM	–	Cc1cc(-c2c(F)cc3c4nn(CCO)c(=O)c-4cn(C4CC4)c3c2F)cc(C)n1 [Example 10]	–	1.4 µM
–	5 µM	–	Cc1cc(-c2c(F)cc3c4nn(C(C)C)c(=O)c-4cn(C4CC4)c3c2F)cc(C)n1 [Example 3, 5-Cyclopropyl-6,8-difluoro-7-(2,6-dimethyl-4-pyridinyl)-2,5-dihydro-2-(2-propyl) -3H-pyrazolo[4,3-c]quinolin-3-one]	–	0.53 µM
–	5 µM	–	COc1ccccc1-n1nc2c3cc(F)c(-c4cc(C)nc(C)c4)c(F)c3n(C3CC3)cc-2c1=O [Example 26]	–	0.34 µM
–	4.9 µM	–	Cc1cc(-c2c(F)cc3c4nn(-c5ccc(O)cc5)c(=O)c-4cn(C4CC4)c3c2F)cc(C)n1 [Example 27]	–	2.6 µM
–	4.5 µM	–	Cc1cc(-c2c(F)cc3c4nn(C5CCC(c6ccccc6)CC5)c(=O)c-4cn(C4CC4)c3c2F)cc(C)n1 (centres unmarked) [Example 48]	8.4 µM	–
–	2.9 µM	–	Cc1cc(-c2c(F)cc3c4nn(-c5cccc6ccccc56)c(=O)c-4cn(C4CC4)c3c2F)cc(C)n1 [Example 28]	–	0.32 µM
–	1.5 µM	–	Cc1cc(-c2c(F)cc3c4nn([C@H]5CC[C@H](NC=O)CC5)c(=O)c-4cn(C4CC4)c3c2F)cc(C)n1 [Example 58, 2-(trans-4-formamidocyclohexyl)-5-cyclopropyl-6,8-difluoro-2,5-dihydro-7-(2,6-dimethyl-4-pyridinyl)-3H-pyrazolo[4,3-c]quinolin-3-one]	9.1 µM	–

Reference: patent US5334595A, “Pyrazoloquinolones as anticancer agents” (priority 1992, dated 1994)
